In patent publication US20250313528A1, “NOVEL COMPOUND AND PHARMACEUTICAL COMPOSITION FOR PREVENTING OR TREATING PULMONARY FIBROSIS COMPRISING SAME AS ACTIVE INGREDIENT” (GIL MEDICAL CENTER, priority 2022, published 2025):

Assays:
[1] = system: FN, COL1A1, α-SMA, TGF-β, and CTGF; experiment: qRT-PCR of fibrosis-related genes in lung tissue, BLM model; type: in vivo, C57BL/6N mice; conditions: BLM mice, compared to the BLM group
Method: (§1) Specifically, 7-week-old C57BL/6N mice were exposed to BLM (3-5 units/kg) via the airway. The compounds were administered orally at doses of 200 μg/kg and 500 μg/kg for Compound 1, and 100 μg/kg and 200 μg/kg for Compound 2, three times a week for three weeks starting the day after BLM exposure. Body weight gain was periodically measured during the experimental period, and lung weight was measured at the end of the experiment.
Specifically, to extract RNA from lung tissue, approximately 100 mg of pulverized lung tissue was dispensed into 1.5 mL tubes, and total RNA was extracted using TRIzol reagent (TakaRa Bio Inc., Japan). After adding 1 mL of TRIzol reagent to denature the tissue, the samples were transferred to 1.5 ml tubes, and 200 μl of chloroform was added, followed by vortexing for 20 seconds to mix thoroughly. After reacting at room temperature for 15 minutes, the samples were centrifuged at 14,000 rpm for 20 minutes to obtain the supernatant. An equal volume of isopropyl alcohol was added, inverted, and allowed to stand at room temperature for 10 minutes. The samples were centrifuged at 14,000 rpm for 15 minutes to obtain RNA pellets, washed with 70% ethanol at 14,000 rpm for 5 minutes, and dried for 5 minutes. […] The RNA concentration and purity were measured at OD 260/280 nm using a Nanodrop.

[2] = system: fibronectin, collagen 1, α-SMA; experiment: Immunohistochemistry of fibrosis-related proteins in lung tissue, BLM model; type: in vivo, C57BL/6N mice; conditions: BLM mice; for expression of α-SMA, collagen, and fibronectin in lung tissue (IHC): compared to the BLM group
Method: as §1
Specifically, the excised lung tissue was embedded in paraffin and sectioned into 4 μm slices using a microtome. These tissue sections were used for H&E, MT stain, and Immunohistochemistry (IHC). Each experiment was conducted by deparaffinizing and rehydrating the sections using xylene and ethanol. For IHC, the LSAB2 system HRP (DAKO, Carpinteria, CA, USA) kit was used. Antibody retrieval was performed in 0.1 mM citric acid (pH 6), and the experiment was conducted according to the provided instructions. The sections were blocked with blocking buffer at room temperature for 1 hour, then incubated overnight at 4° C. with primary antibodies (fibronectin, collagen 1, α-SMA). After blocking with secondary antibodies at room temperature for 1 hour, the Streptavidin-HRP system was used for 10 minutes, followed by exposure to DAB solution, hematoxylin staining, dehydration, clearing, and mounting with Canada balsam. The stained slides were examined under an optical microscope (BK51, Olympus, Japan). The staining results were quantified using the Image J program.
To examine the key factors involved in fibrosis, immunohistochemistry (IHC) was performed using the same method as in Example 6-3.

[3] = system: MRC-5 cells; experiment: Transwell migration assay, MRC-5; type: cell-based, human; conditions: MRC-5, TGF-β1 treatment, 24 hours, FIG. 5
Method: In accordance with the characteristics of myofibroblasts, in which the increased expression of proteins related to fibrogenesis leads to an increase of cell migration and invasion, migration and wound healing assays were conducted to examine the effects of the final selected Compound 1 and Compound 2 on cell migration using normal and diseased fibroblasts.
A 24-well culture plate was prepared with 500 μL of medium including FBS, and an 8 μm pore size insert was placed on top. Inside the insert, 300 μL of medium without FBS was added, and MRC-5 and DHLF-IPF cells were seeded at a density of 1×10^5 cells. […] After incubation, the medium inside the 8 μm pore polycarbonate membrane insert was carefully removed, washed with DPBS, and fixed in methanol for 5 minutes. The cells were then stained with Mayer's Haematoxylin for 8 minutes after washing twice with triple-distilled water. The stained cells were washed with DPBS, gently wiped with a cotton swab inside the insert, and the membrane was cut out and mounted on a slide. The migrated cells were counted under a microscope at 200× magnification.

[4] = system: TGF-β1 signaling pathway; experiment: Western blotting of proteins related to TGF-β1 signaling pathway in DHLF-IPF; type: cell-based, human; conditions: for expression level of Rock protein / expression levels of MRT/SRF in the cytoplasm and nucleus: increased by TGF-β1 treatment
Method: Specifically, to extract fibronectin and α-SMA proteins, the cells were washed once with cold PBS and then RIPA buffer (150 mM NaCl, 0.5% Triton X-100, 50 mM Tris-HCl, pH 7.4, 25 mM NaF, 20 mM EGTA), which was added with a protease inhibitor cocktail, was added thereto to lyse the cells. Then, the proteins were quantified using a BCA protein assay kit. All protein samples were subjected to electrophoresis at 10 μg on 8% to 10% PAGE gels and then transferred to 0.2 μm PVDF membranes (EMD Millipore, MA, USA). The membranes to which the protein was transferred were blocked with 5% BSA or 5% skim milk for 1 hour, and then primary antibodies were added thereto and incubated overnight at 4° C. The following day, the membranes were washed three times with PBST, and then HRP-conjugated secondary antibodies were added and reacted at room temperature for 1 hour. The PVDF membranes prepared through such procedures were smeared with ECL (Luminata™ Crescendo, EMD Millipore) and exposed to a fluorescence reader to confirm the level of protein expression.
The TGF-β1 signaling pathway can be activated through both Smad-dependent and Smad-independent pathways. The TGF-β/Smad signaling, which is a Smad-dependent pathway, is a crucial pathway that regulates the synthesis of extracellular matrix components. The Smad-independent (TGF-β/non-Smad) pathway is influenced by PI3K/AKT/mTOR and MAPK (JNK, ERK, p38), which are known to be involved in cell proliferation and growth. Based on this mechanism, the protein expression related to the TGF-β1 signaling pathway was comparatively analyzed using the same Western blotting method conducted in Example 2.

[5] = system: MRC-5 cells; experiment: Microscopic examination of cell morphology and proliferation, TGF-β1-induced MRC-5; type: cell-based, human; conditions: MRC-5, TGF-β1-induced, microscope, FIG. 4a
Method: The effects of the two candidate compounds of sulforaphane prodrugs on cytotoxicity and morphological changes in normal lung fibroblast MRC-5 cells and diseased lung fibroblast DHLF-IPF cells were examined. The diseased lung fibroblast DHLF-IPF cell line was purchased from Lonza and cultured in FGM™-2 Fibroblast Growth Medium-2 BulletKit™ at 37° C. in a 5% CO2 incubator.
Additionally, the changes in cell morphology of two lung fibroblasts induced by TGF-β1 according to the treatments with Compound 1 and Compound 2 were examined with the naked eye through a microscope.

Compound | expression of five genes (FN, COL1A1, α-SMA, TGF-β, and CTGF) in lung tissue [1] | concentration with the best inhibitory effect on weight recovery and related protein expression ([2]; 200 vs 500 μg/kg) [µg/kg] | expression of α-SMA, collagen, and fibronectin in lung tissue (IHC) [2] | cell migration (transwell) [3] | activity of p-AKT ([4]; TGF-β1) | activity of p-p38 ([4]; TGF-β1) | phosphorylation of Smad-2 ([4]; TGF-β1) | phosphorylation of Smad-7 ([4]; TGF-β1) | expression level of Rock protein [4] | expression levels of MRT/SRF in the cytoplasm and nucleus [4] | cell morphology [5] | inhibition of cell proliferation compared to sulforaphane-treated group [5] | activity of p-ERK ([4]; TGF-β1) | activity of p-JNK ([4]; TGF-β1) | phosphorylation of Smad-3 ([4]; TGF-β1)
CCOC(=O)C(CSC(=S)NCCCC[S+](C)[O-])NC(C)=O (centres unmarked) [Compound 1] | significant reduction | 200 | significant reduction | significantly inhibited in a dose-dependent manner | significantly reducing the activity | significantly reducing the activity | inhibited | increased | significantly reduced | significantly reduced | thin and elongated shape, which is similar to that of the control group | inhibition of cell proliferation was more significant | – | – | –
C=CCOC(=O)C(CSC(=S)NCCCC[S+](C)[O-])NC(C)=O (centres unmarked) [Compound 2] | significant reduction | – | significant reduction in the BLM+GSF-018 group in a dose-dependent manner | significantly inhibited in a dose-dependent manner | significantly reduced the activity | reducing the activity | inhibited | increased | significantly reduced | significantly reduced | thin and elongated shape, which is similar to that of the control group | inhibition of cell proliferation was more significant | reducing the activity | reducing the activity | inhibited
